Measured values taken from PubChem BioAssay AID1963825 (Molecular Pharmacology Branch, DTP, NCI, 2024).

Assay: Anticancer human tumor 997537-175-T-J1-PDC patient-derived colon adenocarcinoma cell line growth inhibition [POLQ]
Settings: 997537-175-T-J1-PDC complex spheroid viability, combination with POLQ inhibitors; for IC50: curve of first compound; for viability, T/C: stronger effect = lower value
Method in brief: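 Three-cell-type spheroids modelling solid tumor plus stroma served as the readout system; POL inhibitors were tested individually and in combination, concentration ranges set by clinical Cmax where known.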
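Further: luminescence signal used as a surrogate for viable cells; spheroids exposed to drugs for seven days before readout.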

Cn1ncnc1[C@H]1c2n[nH]c(=O)c3cc(F)cc(c23)N[C@@H]1c1ccc(F)cc1 + Cc1cccc(N(C)C(=O)C2C(O)CCN2c2nc(C)cc(C(F)(F)F)c2C#N)c1
IC50 (second compound 0.0316 µM): > 100 nM | IC50 (second compound 0.1 µM): > 100 nM | IC50 (second compound 0.316 µM): > 100 nM | IC50 (second compound 1 µM): > 100 nM | IC50 (second compound 3.16 µM): > 100 nM | IC50 (second compound 10 µM): > 100 nM | viability, T/C (second compound 0.0316 µM, first compound 0.000316 µM): 98% | viability, T/C (second compound 0.0316 µM, first compound 0.001 µM): 109% | viability, T/C (second compound 0.0316 µM, first compound 0.00316 µM): 93.5% | viability, T/C (second compound 0.0316 µM, first compound 0.01 µM): 98.6% | viability, T/C (second compound 0.0316 µM, first compound 0.0316 µM): 110% | viability, T/C (second compound 0.0316 µM, first compound 0.1 µM): 90% | viability, T/C (second compound 0.1 µM, first compound 0.000316 µM): 94.8% | viability, T/C (second compound 0.1 µM, first compound 0.001 µM): 113% | viability, T/C (second compound 0.1 µM, first compound 0.00316 µM): 76.2% | viability, T/C (second compound 0.1 µM, first compound 0.01 µM): 119% | viability, T/C (second compound 0.1 µM, first compound 0.0316 µM): 113% | viability, T/C (second compound 0.1 µM, first compound 0.1 µM): 97.6% | viability, T/C (second compound 0.316 µM, first compound 0.000316 µM): 90.6% | viability, T/C (second compound 0.316 µM, first compound 0.001 µM): 102% | viability, T/C (second compound 0.316 µM, first compound 0.00316 µM): 94.3% | viability, T/C (second compound 0.316 µM, first compound 0.01 µM): 94.6% | viability, T/C (second compound 0.316 µM, first compound 0.0316 µM): 91.1% | viability, T/C (second compound 0.316 µM, first compound 0.1 µM): 91.4% | viability, T/C (second compound 1 µM, first compound 0.000316 µM): 92.6% | viability, T/C (second compound 1 µM, first compound 0.001 µM): 109% | viability, T/C (second compound 1 µM, first compound 0.00316 µM): 96.1% | viability, T/C (second compound 1 µM, first compound 0.01 µM): 100% | viability, T/C (second compound 1 µM, first compound 0.0316 µM): 98.3% | viability, T/C (second compound 1 µM, first compound 0.1 µM): 84.4% | viability, T/C (second compound 3.16 µM, first compound 0.000316 µM): 105% | viability, T/C (second compound 3.16 µM, first compound 0.001 µM): 109% | viability, T/C (second compound 3.16 µM, first compound 0.00316 µM): 95.6% | viability, T/C (second compound 3.16 µM, first compound 0.01 µM): 91.5% | viability, T/C (second compound 3.16 µM, first compound 0.0316 µM): 92.1% | viability, T/C (second compound 3.16 µM, first compound 0.1 µM): 94.7% | viability, T/C (second compound 10 µM, first compound 0.000316 µM): 102% | viability, T/C (second compound 10 µM, first compound 0.001 µM): 93.1% | viability, T/C (second compound 10 µM, first compound 0.00316 µM): 89.8% | viability, T/C (second compound 10 µM, first compound 0.01 µM): 84.4% | viability, T/C (second compound 10 µM, first compound 0.0316 µM): 84.4% | viability, T/C (second compound 10 µM, first compound 0.1 µM): 99.3%
